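Cells were grown in 96-well plates and exposed to each compound for 48 hours at five concentrations; endpoints were interpolated linearly between bracketing concentrations, or set to the highest concentration if not reached. Here, GI50 denotes the concentration required for 50% inhibition of growth.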 The source made the active and inactive calls. Cut-off read from the data, not from the text of the source: active = GI50 up to about 1.1 µM and inactive = higher.
How the values were obtained:
Experiment in all cases: inhibition of tumour cell growth, NCI panel, 48 h
[1] = test system: OVCAR-8
[2] = test system: HCC 2998
[3] = test system: HOP-62
[4] = test system: HCT-116
[5] = test system: SR
[6] = test system: EKVX
[7] = test system: M14
[8] = test system: CCRF-CEM
[9] = test system: RPMI-8226
[10] = test system: K562
[11] = test system: IGROV-1
[12] = test system: SF-295
[13] = test system: OVCAR-4
[14] = test system: UACC-257
[15] = test system: SK-OV-3
[16] = test system: HCT-15
[17] = test system: SK-MEL-28
[18] = test system: TK-10
[19] = test system: U-251
[20] = test system: RXF 393

| SMILES | GI50 [1] | GI50 [2] | GI50 [3] | GI50 [4] | GI50 [5] | GI50 [6] | GI50 [7] | GI50 [8] | GI50 [9] | GI50 [10] | GI50 [11] | GI50 [12] | GI50 [13] | GI50 [14] | GI50 [15] | GI50 [16] | GI50 [17] | GI50 [18] | GI50 [19] | GI50 [20] |
| --- | --- | --- | --- | --- | --- | --- | --- | --- | --- | --- | --- | --- | --- | --- | --- | --- | --- | --- | --- | --- |
| Cc1cc(O)c2c(c1)OC1(C)CCC3C(C)(C)CCCC34COC2C14 (configuration not stated) | 16.7 µM (inactive) | 14.7 µM (inactive) | 14.1 µM (inactive) | 14.3 µM (inactive) | > 10 µM (inactive) | 11.9 µM (inactive) | 14.4 µM (inactive) | 20 µM (inactive) | > 10 µM (inactive) | 20.8 µM (inactive) | 19.7 µM (inactive) | 15.1 µM (inactive) | 18.6 µM (inactive) | 15.5 µM (inactive) |  |  |  |  |  |  |
| CCCCc1ccc(Nc2nc(S)c3[nH]cnc3n2)cc1 | > 10 µM (inactive) | 25.5 µM (inactive) |  | 25.5 µM (inactive) |  | > 10 µM (inactive) | 24.2 µM (inactive) | 21.1 µM (inactive) | 44.5 µM (inactive) | 43.4 µM (inactive) | 18.7 µM (inactive) | 25.1 µM (inactive) | 23.9 µM (inactive) | 21.6 µM (inactive) | > 10 µM (inactive) | 37.5 µM | 22.9 µM (inactive) | 20.6 µM (inactive) | 24.7 µM (inactive) |  |
| COc1ccc(NC(=O)C(=O)C2NC(=S)NC2=O)c(OC)c1 (configuration not stated) | > 100 µM (inactive) | > 100 µM (inactive) | > 100 µM (inactive) | > 100 µM (inactive) |  | > 100 µM (inactive) | > 100 µM (inactive) | > 10 µM (inactive) | > 100 µM (inactive) | > 100 µM (inactive) | > 100 µM (inactive) | > 100 µM (inactive) | > 100 µM (inactive) | > 100 µM (inactive) | > 100 µM (inactive) | > 100 µM | > 100 µM (inactive) | > 100 µM (inactive) | > 100 µM (inactive) | > 100 µM (inactive) |
| O=C(CSc1nnc(Cc2ccccc2)o1)Nc1ccccc1Cl | > 100 µM (inactive) | > 100 µM (inactive) | > 100 µM (inactive) | > 100 µM (inactive) |  |  | > 100 µM (inactive) | > 100 µM (inactive) | > 100 µM (inactive) | > 100 µM (inactive) | > 100 µM (inactive) | > 100 µM (inactive) | > 100 µM (inactive) |  | > 100 µM (inactive) | > 100 µM | > 100 µM (inactive) | > 100 µM (inactive) | > 100 µM (inactive) |  |
| CCOC(=O)c1ccc(-c2ccc(Cl)cc2)[nH]1 | > 10 µM (inactive) | > 10 µM (inactive) |  | > 10 µM (inactive) | > 10 µM (inactive) | 2.28 µM (inactive) | > 10 µM (inactive) | > 10 µM (inactive) |  | > 10 µM (inactive) | > 10 µM (inactive) | > 10 µM (inactive) | > 10 µM (inactive) | > 10 µM (inactive) | > 10 µM (inactive) | > 10 µM |  | > 10 µM (inactive) | > 10 µM (inactive) |  |
| C=C(C)C1Cc2cc(C(C)=O)ccc2O1 (configuration not stated) | > 100 µM (inactive) | > 100 µM (inactive) |  | > 100 µM (inactive) |  | > 100 µM (inactive) | > 100 µM (inactive) | > 100 µM (inactive) | > 100 µM (inactive) | > 100 µM (inactive) | > 100 µM (inactive) | > 100 µM (inactive) | > 100 µM (inactive) | > 100 µM (inactive) | > 100 µM (inactive) | > 100 µM | > 100 µM (inactive) | > 100 µM (inactive) | > 100 µM (inactive) |  |
| NC(=S)N/N=C1\C(=O)C=C(Nc2ccc(Cl)cc2Cl)c2ccccc21 | 21.9 µM (inactive) | > 100 µM (inactive) | 4.34 µM (inactive) | 56.2 µM (inactive) |  | 22.1 µM (inactive) | 44.5 µM (inactive) |  |  |  | 22.2 µM (inactive) | 12.8 µM (inactive) | 33.2 µM (inactive) | > 100 µM (inactive) | 12.4 µM (inactive) | 31.1 µM | > 100 µM (inactive) | 32.4 µM (inactive) | 11 µM (inactive) | 18.6 µM (inactive) |
| COc1cc(/C=C2\N=C(c3ccccc3)N(c3ccc4c(c3)Sc3cc(N5C(=O)/C(=C/c6cc(OC)c(OC)c(OC)c6)N=C5c5ccccc5)ccc3N4)C2=O)cc(OC)c1OC | 18.5 µM (inactive) | 21.2 µM (inactive) | 25.5 µM (inactive) | 42 µM (inactive) |  | 22.8 µM (inactive) | 31.6 µM (inactive) | 22 µM (inactive) | 27.4 µM (inactive) | 21 µM (inactive) | 17 µM (inactive) | 22.9 µM (inactive) | 18.9 µM (inactive) | 16.9 µM (inactive) | 21.3 µM (inactive) | > 100 µM | 40.6 µM (inactive) | 16.9 µM (inactive) | 21 µM (inactive) | 20.7 µM (inactive) |
| O=[N+]([O-])c1ccc(OCCNc2cccc3ccccc23)cc1 | 65.3 µM (inactive) | 64.6 µM (inactive) | > 100 µM (inactive) | 42.8 µM (inactive) |  | > 100 µM (inactive) | > 100 µM (inactive) | 38.2 µM (inactive) | 24.7 µM (inactive) | 18.6 µM (inactive) | > 100 µM (inactive) | > 100 µM (inactive) | > 100 µM (inactive) | > 100 µM (inactive) | > 100 µM (inactive) | 9.73 µM | > 100 µM (inactive) | > 100 µM (inactive) | 94.6 µM (inactive) |  |
| CCOC(=O)c1cc(C2(OC)CCN(Cc3ccccc3)C2=O)c(-c2cc(C)no2)[nH]1 (configuration not stated) | > 100 µM (inactive) | > 100 µM (inactive) | > 100 µM (inactive) | > 100 µM (inactive) |  | 93.1 µM (inactive) | > 100 µM (inactive) |  | > 100 µM (inactive) | > 100 µM (inactive) | > 100 µM (inactive) | > 100 µM (inactive) | > 100 µM (inactive) | > 100 µM (inactive) | > 100 µM (inactive) | > 100 µM | > 100 µM (inactive) | > 100 µM (inactive) | > 100 µM (inactive) | 99.5 µM (inactive) |
| CSC1(C)CC2C(CC1N1CCOCC1)C2(C)C (configuration not stated) | > 100 µM (inactive) | > 100 µM (inactive) |  | > 100 µM (inactive) |  |  | > 100 µM (inactive) | > 100 µM (inactive) | > 100 µM (inactive) | > 100 µM (inactive) | > 100 µM (inactive) | > 100 µM (inactive) | > 100 µM (inactive) | > 100 µM (inactive) | > 100 µM (inactive) | > 100 µM | > 100 µM (inactive) | > 100 µM (inactive) | > 100 µM (inactive) |  |
| CC(C)CCC[C@@H](C)C1CCC2[C@@H]3CC=C4C[C@@H](C(=O)NCCN(C)C)CC[C@]4(C)C3CC[C@@]21C (some centres not stated) | 33.1 µM (inactive) | 23.5 µM (inactive) | 18.9 µM (inactive) |  |  | 47.5 µM (inactive) | 16.3 µM (inactive) | 23.8 µM (inactive) | 19.8 µM (inactive) | 33 µM (inactive) | 31.1 µM (inactive) | 44.4 µM (inactive) | 30.4 µM (inactive) | 22.4 µM (inactive) | > 100 µM (inactive) | 19 µM | 35.2 µM (inactive) | 23.7 µM (inactive) | 30 µM (inactive) | > 100 µM (inactive) |
| O=C(CSc1nnc(-c2ccccn2)s1)N/N=C/c1ccccc1 | > 100 µM (inactive) |  | 51.5 µM (inactive) | > 100 µM (inactive) | > 100 µM (inactive) |  | > 100 µM (inactive) | > 100 µM (inactive) |  | > 100 µM (inactive) | > 100 µM (inactive) | > 100 µM (inactive) | > 100 µM (inactive) | > 100 µM (inactive) | > 100 µM (inactive) | > 100 µM | > 100 µM (inactive) | 89.1 µM (inactive) | 54.5 µM (inactive) |  |
| O=c1c(O)cccn1C1OC(CO)C(O)C1O (configuration not stated) | > 100 µM (inactive) | > 100 µM (inactive) |  | > 100 µM (inactive) |  | > 100 µM (inactive) | > 100 µM (inactive) | > 100 µM (inactive) | > 100 µM (inactive) | > 100 µM (inactive) | > 100 µM (inactive) |  | > 100 µM (inactive) | > 100 µM (inactive) | > 100 µM (inactive) | > 100 µM | > 100 µM (inactive) | > 100 µM (inactive) | > 100 µM (inactive) | > 100 µM (inactive) |
| O=[N+]([O-])c1cccc(/N=N/c2c(O)ccc3ccccc23)c1 | > 100 µM (inactive) |  | 35 µM (inactive) | > 100 µM (inactive) |  | 35.2 µM (inactive) | > 100 µM (inactive) | 16.2 µM (inactive) | 54.2 µM (inactive) | 69 µM (inactive) | 94.8 µM (inactive) | 31 µM (inactive) | 66.8 µM (inactive) | > 100 µM (inactive) | 35.2 µM (inactive) | 44.6 µM | 90.4 µM (inactive) | 44.7 µM (inactive) | 19.6 µM (inactive) | 91.2 µM (inactive) |
| CC(=O)OC1CC2C(C)(C)C(=O)C=C[C@]2(C)C2CCC3(C)C(c4ccoc4)C(=O)[C@H]4O[C@]43[C@]12C (some centres not stated) | 19.4 µM (inactive) | 17.1 µM (inactive) | 22.6 µM (inactive) | 15.4 µM (inactive) |  | 31.3 µM (inactive) | 26.7 µM (inactive) | 15.5 µM (inactive) | 15.9 µM (inactive) | 15.6 µM (inactive) | 25.5 µM (inactive) |  | 22.3 µM (inactive) |  | > 100 µM (inactive) | 15.1 µM | 15.5 µM (inactive) | 31.6 µM (inactive) | 18.6 µM (inactive) | 19.1 µM (inactive) |

From ChEMBL document CHEMBL1201862, “PubChem BioAssay data set” (2004)
